Assay results from US7985072B2, “Method and apparatus for tooth rejuvenation and hard tissue modification” (Rejuvedent LLC, priority 2005, dated 2011).

What was measured:
[1] = Six-hour exposure of extracted teeth to gel or citric acid; conditions: +24° C.
Text: Control of etching using highly concentrated edible acid can be achieved by using different additives. The interaction between acid and hard tissue leads to a dissolution of mineral components and modification of organic components. Three types of dissolution are known: Type I, where enamel rods are removed preferentially, Type II, where the organic matrix is removed preferentially, and Type III, where both Type I and Type II dissolution take place. […] The present invention, proposes to control the etching process, using edible acid with a special additive. One of control mechanisms involves additives, including, but not limited to, the ions of Ca Cr, Ba Cd, Mg, P, SiF, and their compounds, such as PO4. Other non-organic or organic additives may also be used. Additions of such ion combinations may slow the dissolution of the inter-prismatic regions or may provide for re-crystallization of hydroxyapatite crystallites, or the building of new crystallites of fluroapatite. The use of such additives can be effective in the control of tooth etching, or in the preparation of the tooth surface for the application of a protective or cosmetic coating, or for the thermal re-crystallization of the tooth surface.
Extracted teeth with healthy enamel were used in the experiment. One half of enamel surface of each tooth was covered with a protective cover (“control side”). The other side (“treatment side”) was left unprotected. […]

[2] = system: maxillary right central incisor of a volunteer; assay: Example 2: at-home tooth whitening treatment; conditions: for Normalized optical coefficient of reflection: before treatment 1
[3] = 180-minute exposure of tooth halves to citric acid solution or gel, then methylene blue; conditions: pH=1.5, +20° C., 180 minutes
Protocol: Exposure in both cases was for 180 minutes and the tooth was then washed in distilled water. […] The tooth was then exposed to an aqueous solution of methylene blue.

[4] = Comparison of edible acids as bleaching agents for removal of stains in enamel; conditions: low pH (<2.5), intact enamel
Protocol: The ability of an aqueous acidic solution to deconstruct and dissolve both organic and inorganic components depends on the period of time, pH, concentration, and temperature at which the process occurs. The color of the enamel after stain removal and bleaching is determined by how closely the structure after etching matches the natural structure and how well light is scattered from the surface of the tooth. Remineralization is however, a slow process, so caution in carrying out the procedure is recommended, and it is desirable to protect the new surface with a hard material. To achieve this, the present invention proposes the use of a high concentration of acid to minimize the time of treatment. For a high concentration of acid to be used safely within the oral cavity, two fundamental safety concerns need to be addressed: firstly toxicity and secondly soft tissue damage. To completely eliminate the toxicity problem, especially for home use, we propose the use of an edible acid which is non-toxic when ingested. The volume of acid for any application in the present invention is limited to several cubic centimeters. After dissolution in saliva the concentration of the acid ingested will drop, and the pH will increase, which is typical for foodstuffs. A typical pH for food acids is 2.5 or more. We have studied the effect of a low pH (<2.5) edible acid on intact enamel. […]

In the case of `O=C(O)CC(O)(CC(=O)O)C(=O)O` [citric acid], the “hardness of treated surface (dental probe / versus control side)” value [1] is reported as “easily damaged by scratching with a dental probe”, the predominant etching pattern [1] is reported as “Type I etching” and the “specular reflection property of tooth surface” value [1] is reported as “completely lost its specular reflection property”. The “whitening effect of treated sides” value [1] was “comparable”, the “Normalized optical coefficient of reflection” value (shortened to “Normalized optical coefficient”) ([2]; 1 months after treatment) was 1.3 a.u and the “Normalized optical coefficient” value ([2]; 4 months after treatment) was 1.15 a.u. The “Normalized optical coefficient” value ([2]; after 3 weeks of daily treatment (pH=1.5, room temperature, 2 minutes)) was 1.34 a.u, the “change in enamel gloss and reflection” value ([2]; after three-week treatment) was “No visible change in enamel gloss and reflection” and the “improvement in tooth whitening (coefficient of reflection for white light) versus original color” value ([2]; after three-week treatment) was 35%. The “dentinal hypersensitivity and change in gingival tissue” value ([2]; after treatment or during review appointments) was “No dentinal hypersensitivity”, the “pain or discomfort throughout treatment” value ([2]; daily 2 minutes for three weeks) was “did not report any pain or discomfort” and the “detrimental changes in soft tissues or enamel (post-treatment caries)” value ([2]; four month review visit) was “no detrimental changes”. For the same molecule, the “improvement compared with original coefficient of reflection” value ([2]; four months after treatment) was “approximately 15%”, the “whitening effect exceeding the original” value ([2]; one month after treatment) was 33% and the “coloration by aqueous methylene blue after exposure” value [3] was “colored by methylene blue”. The “type of enamel etching” value [3] was “Type I etching”, the whitening effect [3] was “strong whitening effect” and the “effectiveness among edible acids (lactic, malic, tartaric, oxalic acid)” value [4] was “most effective”.
